Assay results: patent US4874773A, “3-Aminocarbonyl-1,4-dihydropyridine-5-carboxylic acid compounds, and pharmaceutical composition containing the same” (priority 1985, dated 1989)
Like-named read-outs stand apart in the source and are kept apart here.

Assays:
[1] = system: Spontaneously hypertensive male rats; assay: Experiment 1-1 Hypotensive activity (oral, conscious spontaneously hypertensive rats); format: in vivo, rat; conditions: 10 mg/kg oral; for Maximum hypotension: mean blood pressure
Experimental: Spontaneously hypertensive male rats (13-15 week age, one group: 3 rats) were used. […] The rats were fixed in a Howlman cage without fasting, and the femoral arterial pressure was measured by a direct method without anesthesia with a cannula which was previously inserted into the femoral artery of the animal, via a pressure transducer (MPU-0.5, manufactured by Nippon Koden K.K.). The test compounds were orally administered in the form of a suspension in 0.5% methyl cellulose solution in a dose of 10 mg/kg (in some compounds, 3 mg/kg). In the control group, only 0.5% methyl cellulose solution was administered likewise. The blood pressure was measured for 5 hours after the administration of test compounds.

isolated heart [2] = assay: Experiment 2-1 Activity on isolated heart; set-up: species or system Japanese white rabbit; conditions: Oryctolagus cuniculus, 3 μg/heart; for activation at 3 µg/heart: read-out: Increase of coronary perfusion; for inhibition at 3 µg/heart, 3 µg/heart: read-out: Inhibitory rate of systole; for inhibition at 3 µg/heart: read-out: Reducing rate of heart pulse
Experimental: Japanese white rabbit (weighing 2.2-2.5 kg) was anesthetized by introvenous injection of nembutal (20 mg/kg) and then sacrificed by bleeding from common carotid artery. […] After stabilizing the heart preparation for 90 minutes, the test compound was administered. There were measured the perfusion volume with a drop-counting meter (ET-600G type, manufactured by Nippon Koden K.K.) and the heart pulse and the contractility via a force-displacement transducer (FD pick up, SB-IT type, manufactured by Nippon Koden K.K.) (for measuring heart pulse, an instant pulse meter (AT-601G type, minufactured by Nippon Koden K.K.) being further used).

isolated aorta = assay: Experiment 3 Relaxing activity on the isolated aorta (30 mM KCl contracted); set-up: species or system Japanese white rabbit; conditions: for EC50: Oryctolagus cuniculus, 30 mM KCl contraction, maximum relaxation by papaverine = 100%, read-out: EC50 (concentration for 50% relaxation); for relaxing / vasodilating activity on isolated aorta (in words): Table 8, comparison with nifedipine and nicardipine hydrochloride, etc. where stated
isolated heart [3] = assay: Experiment 2-2 Activity onto the isolated heart (with duration); set-up: species or system Japanese white rabbit; conditions: for Coronary perfusion Duration: time until perfusion volume returned to initial level; for activation at 3 µg/heart / inhibition at 3 µg/heart / activation at 1 µg/heart / inhibition at 1 µg/heart: Oryctolagus cuniculus; for activation at 3 µg/heart / activation at 1 µg/heart: read-out: Coronary perfusion Increase
Experimental: Japanese white rabbit (weighing 2.2-2.5 kg) was anesthetized by introvenous injection of nembutal (20 mg/kg) and then sacrificed by bleeding from common carotid artery. […] There were measured the perfusion volume with a drop-counting meter (ET-600G type, manufactured by Nippon Koden K.K.) and the heart pulse and the contractility via a force-displacement transducer (FD pick up, SB-IT type, manufactured by Nippon Koden K.K.) (for measuring heart pulse, an instant pulse meter (AT-601G type, minufactured by Nippon Koden K.K.) being further used).
The test compounds were dissolved in ethanol, and the solution was diluted in 100-fold with purified water, and the diluted solution was administered in an amount of 0.1 ml/heart (i.e. 3 μg/heart).
The activity was measured in the same manner as described in Experiment 2-1 except that in some test compounds, the dose was in 1 μg/heart. Besides, the duration of the activity was evaluated by counting the time until the coronary perfusion volume became to the initial level before the administration of the test compound.

[4] = 3 μg/heart, read-out: Inhibitory rate of systole
[5] = 3 μg/heart, read-out: Reducing rate of heart pulse
[6] = 1 μg/heart, read-out: Inhibitory rate of systole
[7] = 1 μg/heart, read-out: Reducing rate of heart pulse

SMILES | EC50 (isolated aorta) [nM] | Coronary perfusion Duration (isolated heart [3]; 3 μg/heart) [min] | activation at 3 µg/heart (isolated heart [3]; 3 μg/heart) [%] | inhibition at 3 µg/heart (isolated heart [3]; [4]) [%] | inhibition at 3 µg/heart (isolated heart [3]; [5]) [%] | other results
COC(=O)C1=C(C)NC(C)=C(C(N)=O)C1c1ccccc1[N+](=O)[O-] (centres unmarked) [C, reference compound] | > 1000 | – | – | – | – | Recovering time [1]: 2.0 h; Time for recovering 1/2 of max. hypotension [1]: 1.5 h; Time until reaching to max. hypotension [1]: 15 min; Maximum hypotension [1]: 20 mmHg; activation at 3 µg/heart (isolated heart [2]): 16%; inhibition at 3 µg/heart, 3 µg/heart (isolated heart [2]): 17%; inhibition at 3 µg/heart (isolated heart [2]): 7%
CCNC(=O)C1=C(C)NC(C)=C(C(=O)OC)C1c1ccccc1[N+](=O)[O-] (centres unmarked) [D, reference compound] | – | – | – | – | – | activation at 3 µg/heart (isolated heart [2]): 20%; inhibition at 3 µg/heart, 3 µg/heart (isolated heart [2]): 15%; inhibition at 3 µg/heart (isolated heart [2]): 5%
CCOC(=O)C1=C(C)NC(C)=C(C(=O)N(C)C)C1c1cccc([N+](=O)[O-])c1 (centres unmarked) [E, reference compound] | > 1000 | – | – | – | – | Recovering time [1]: 1.0 h; Time for recovering 1/2 of max. hypotension [1]: 0.5 h; Time until reaching to max. hypotension [1]: 15 min; Maximum hypotension [1]: 5 mmHg; activation at 3 µg/heart (isolated heart [2]): 0%; inhibition at 3 µg/heart, 3 µg/heart (isolated heart [2]): 0%; inhibition at 3 µg/heart (isolated heart [2]): 1%
CCOC(=O)C1=C(C)NC(C)=C(C(N)=O)C1c1ccccc1[N+](=O)[O-] (centres unmarked) [Example 9] | 670 | – | – | – | – | –
CCCOC(=O)C1=C(C)NC(C)=C(C(N)=O)C1c1ccccc1[N+](=O)[O-] (centres unmarked) [Example 10] | 400 | – | – | – | – | –
CC1=C(C(N)=O)C(c2ccccc2[N+](=O)[O-])C(C(=O)OC(C)C)=C(C)N1 (centres unmarked) [Example 11] | 320 | – | – | – | – | –
CCCCCOC(=O)C1=C(C)NC(C)=C(C(N)=O)C1c1ccccc1[N+](=O)[O-] (centres unmarked) [Example 16] | 610 | – | – | – | – | –
CC1=C(C(N)=O)C(c2ccccc2[N+](=O)[O-])C(C(=O)OC(C)C(C)C)=C(C)N1 (centres unmarked) [Example 18] | 710 | – | – | – | – | –
CCNC(=O)C1=C(C)NC(C)=C(C(=O)OCCC(C)C)C1c1ccccc1[N+](=O)[O-] (centres unmarked) [Example 33] | 31 | – | – | – | – | relaxing / vasodilating activity on isolated aorta (in words) (isolated aorta): the same or more potent activity
CCCCCOC(=O)C1=C(C)NC(C)=C(C(=O)NCCC)C1c1ccccc1[N+](=O)[O-] (centres unmarked) [Example 39] | 40 | – | – | – | – | relaxing / vasodilating activity on isolated aorta (in words) (isolated aorta): the same or more potent activity
CCCNC(=O)C1=C(C)NC(C)=C(C(=O)OCCC(C)C)C1c1ccccc1[N+](=O)[O-] (centres unmarked) [Example 40] | – | – | – | – | – | activation at 3 µg/heart (isolated heart [2]): 25%; inhibition at 3 µg/heart, 3 µg/heart (isolated heart [2]): 14%; inhibition at 3 µg/heart (isolated heart [2]): 1%
CCCCCCOC(=O)C1=C(C)NC(C)=C(C(=O)NCCC)C1c1ccccc1[N+](=O)[O-] (centres unmarked) [Example 41] | 130 | – | – | – | – | –
CCCCCCCOC(=O)C1=C(C)NC(C)=C(C(=O)NCCC)C1c1ccccc1[N+](=O)[O-] (centres unmarked) [Example 42] | 380 | – | – | – | – | –
CCC(CC)OC(=O)C1=C(C)NC(C)=C(C(=O)NC(C)C)C1c1ccccc1[N+](=O)[O-] (centres unmarked) [Example 50] | 700 | – | – | – | – | –
CCCOC(=O)C1=C(C)NC(C)=C(C(=O)NC(C)C)C1c1cccc([N+](=O)[O-])c1 (centres unmarked) [Example 62] | 150 | – | – | – | – | activation at 3 µg/heart (isolated heart [2]): 20%; inhibition at 3 µg/heart, 3 µg/heart (isolated heart [2]): 2%; inhibition at 3 µg/heart (isolated heart [2]): 6%
CC1=C(C(=O)NC(C)C)C(c2cccc([N+](=O)[O-])c2)C(C(=O)OC(C)C)=C(C)N1 (centres unmarked) [Example 63] | – | – | – | – | – | Recovering time [1]: 1.5 h; Time for recovering 1/2 of max. hypotension [1]: 1.0 h; Time until reaching to max. hypotension [1]: 15 min; Maximum hypotension [1]: 7 mmHg

SMILES | EC50 (isolated aorta) [nM] | Coronary perfusion Duration (isolated heart [3]; 3 μg/heart) [min] | activation at 3 µg/heart (isolated heart [3]; 3 μg/heart) [%] | inhibition at 3 µg/heart (isolated heart [3]; [4]) [%] | inhibition at 3 µg/heart (isolated heart [3]; [5]) [%] | other results
CCCCCOC(=O)C1=C(C)NC(C)=C(C(=O)NC(C)C)C1c1cccc([N+](=O)[O-])c1 (centres unmarked) [Example 66] | 70 | – | – | – | – | activation at 3 µg/heart (isolated heart [2]): 16%; inhibition at 3 µg/heart, 3 µg/heart (isolated heart [2]): 15%; inhibition at 3 µg/heart (isolated heart [2]): 13%; relaxing / vasodilating activity on isolated aorta (in words) (isolated aorta): the same or more potent activity
CCCCNC(=O)C1=C(C)NC(C)=C(C(=O)OCCCC)C1c1cccc([N+](=O)[O-])c1 (centres unmarked) [Example 69] | 570 | – | – | – | – | –
COC(=O)C1=C(C)NC(C)=C(C(=O)NC2CC2)C1c1ccccc1[N+](=O)[O-] (centres unmarked) [Example 80, methyl 2,6-dimethyl-3-cyclopropylaminocarbonyl-4-(o-nitrophenyl)-1,4-dihydropyridine-5-carboxylate] | – | < 10 | 25 | 15 | 5 | –
CCCCCCCOC(=O)C1=C(C)NC(C)=C(C(=O)NC2CC2)C1c1ccccc1[N+](=O)[O-] (centres unmarked) [Example 81, n-heptyl 2,6-dimethyl-3-cyclopropylaminocarbonyl-4-(o-nitrophenyl)-1,4-dihydropyridine-5-carboxylate] | – | 10 to 15 | 15 | 15 | 0 | –
COC(=O)C1=C(C)NC(C)=C(C(=O)NC2CCCC2)C1c1ccccc1[N+](=O)[O-] (centres unmarked) [Example 84, methyl 2,6-dimethyl-3-cyclopentylaminocarbonyl-4-(o-nitrophenyl)-1,4-dihydropyridine-5-carboxylate] | – | – | – | – | – | Coronary perfusion Duration (isolated heart [3]; 1 μg/heart): 20 to 30 min; activation at 1 µg/heart (isolated heart [3]; 1 μg/heart): 30%; inhibition at 1 µg/heart (isolated heart [3]; [6]): 15%; inhibition at 1 µg/heart (isolated heart [3]; [7]): 20%
CCCCCCCCOC(=O)C1=C(C)NC(C)=C(C(=O)NC2CCCC2)C1c1ccccc1[N+](=O)[O-] (centres unmarked) [Example 86, n-octyl 2,6-dimethyl-3-cyclopentylaminocarbonyl-4-(o-nitrophenyl)-1,4-dihydropyridine-5-carboxylate] | – | – | – | – | – | Coronary perfusion Duration (isolated heart [3]; 1 μg/heart): 60 min; activation at 1 µg/heart (isolated heart [3]; 1 μg/heart): 50%; inhibition at 1 µg/heart (isolated heart [3]; [6]): 15%; inhibition at 1 µg/heart (isolated heart [3]; [7]): 20%
CCCCCCCCCOC(=O)C1=C(C)NC(C)=C(C(=O)NC2CCCC2)C1c1ccccc1[N+](=O)[O-] (centres unmarked) [Example 87, n-nonyl 2,6-dimethyl-3-cyclopentylaminocarbonyl-4-(o-nitrophenyl)-1,4-dihydropyridine-5-carboxylate] | – | – | – | – | – | Coronary perfusion Duration (isolated heart [3]; 1 μg/heart): 60 min; activation at 1 µg/heart (isolated heart [3]; 1 μg/heart): 40%; inhibition at 1 µg/heart (isolated heart [3]; [6]): 15%; inhibition at 1 µg/heart (isolated heart [3]; [7]): 5%
CCOC(=O)C1=C(C)NC(C)=C(C(=O)NC2CC2)C1c1ccccc1[N+](=O)[O-] (centres unmarked) [Example 88] | – | < 10 | 35 | 30 | 30 | –
CCCOC(=O)C1=C(C)NC(C)=C(C(=O)NC2CC2)C1c1ccccc1[N+](=O)[O-] (centres unmarked) [Example 89] | – | < 10 | 30 | 35 | 30 | –
CC1=C(C(=O)NC2CC2)C(c2ccccc2[N+](=O)[O-])C(C(=O)OC(C)C)=C(C)N1 (centres unmarked) [Example 90] | – | < 10 | 15 | 10 | 5 | –
CCCCOC(=O)C1=C(C)NC(C)=C(C(=O)NC2CC2)C1c1ccccc1[N+](=O)[O-] (centres unmarked) [Example 91] | – | < 10 | 20 | 35 | 10 | –
CC1=C(C(=O)NC2CC2)C(c2ccccc2[N+](=O)[O-])C(C(=O)OCC(C)C)=C(C)N1 (centres unmarked) [Example 92] | – | < 10 | 10 | 10 | 5 | –
CCCCCOC(=O)C1=C(C)NC(C)=C(C(=O)NC2CC2)C1c1ccccc1[N+](=O)[O-] (centres unmarked) [Example 93] | – | 20 | 20 | 20 | 15 | –
CC1=C(C(=O)NC2CC2)C(c2ccccc2[N+](=O)[O-])C(C(=O)OCCC(C)C)=C(C)N1 (centres unmarked) [Example 94] | – | < 10 | 15 | 10 | 0 | –
CCCCCCOC(=O)C1=C(C)NC(C)=C(C(=O)NC2CC2)C1c1ccccc1[N+](=O)[O-] (centres unmarked) [Example 95] | – | 10 to 15 | 20 | 15 | 10 | –
CC1=C(C(=O)NC2CC2)C(c2ccccc2[N+](=O)[O-])C(C(=O)OCCCC(C)C)=C(C)N1 (centres unmarked) [Example 96] | – | < 10 | 20 | 10 | 0 | –
